Data reported in publication PMC12655457, “Does CytoSorb Interfere with Immunosuppression? A Pharmacokinetic and Functional Evaluation” (Pharmaceutics, 2025).

Assays:
[1] = Removal of immunosuppressants by acute dialysis (CVVHD, ex vivo, plasma); format: in vitro ADME, human
Description: (§1) To evaluate the effect of dialysis under clinically relevant conditions, both chronic and acute dialysis settings were simulated using standard Fresenius systems. In all experiments, 1.5 L of citrated human plasma was dialyzed against calcium-free dialysate at 37 °C.
(§2) Prior to circulation, the systems were flushed with 2 L of isotonic saline. Plasma samples were collected at defined time points (15–480 min) and analyzed for immunosuppressants, urea, and albumin. Chronic dialysis represents intermittent high-flow conditions, whereas acute dialysis mimics continuous low-flow therapy used in critically ill patients.
(§3) The clearance (C) of each compound during both the dialysis and the dynamic CytoSorb experiments was calculated using the first-order exponential decay formula:(2) C = V/t ×lnCo/Ct where V = plasma volume, t = treatment time [min], C0 = concentration before starting treatment, Ct = concentration at time t.

human whole blood [2] = assay: Whole blood cell model: anti-CD3 stimulation, cytokine measurement; format: cell-based; conditions: + Anti-CD3, + CytoSorb
Description: (§6) Subsequently, the blood was split into two experimental groups: one was treated with CytoSorb in a batch setup, and the other served as an untreated control, incubated under identical conditions at 37 °C on a roller mixer. Following treatment, all samples were allowed to rest for 4 h. After the resting period, blood samples were stimulated with either lipopolysaccharide (LPS) E. coli or with anti-CD3 antibodies. […] The stimulation was carried out for 4 h at 37 °C on a roller mixer. Thereafter, the blood samples were centrifuged, and the plasma was collected and stored at −80 °C. Leukocyte activation was assessed by quantification of IL-1β, IL-6, IL-8, and TNF-α.

autologous blood cells = assay: Cellular uptake of immunosuppressants by autologous blood cells (static setup); format: in vitro ADME, human; conditions: spiked plasma with autologous blood cells 1:1 v/v, n = 3
Description: (§4) Plasma was obtained by centrifugation (3500× g, 10 min) from citrate-anticoagulated human whole blood and spiked with immunosuppressants to defined target concentrations (Table 1). To evaluate adsorption, plasma was incubated with the CytoSorb resin at 1:10 (v/v) for 60 min at 37 °C on a roller mixer. In parallel, a separate aliquot of spiked plasma was incubated with autologous blood cells (1:1, v/v) to assess cellular uptake of immunosuppressants. Untreated spiked plasma served as control (Figure 1a). Samples were collected before and after incubation for subsequent analysis.
MPA was determined using a validated test for the Cobas c311 autoanalyzer from Roche (Basel, Switzerland). 6-MP was quantified by reversed-phase HPLC [17, 18]. […] 6-MP was quantified with a retention time of 2.3 min using an UV detector (325 nm). The quantification of cytokines was determined by Magnetic Luminex Assay with a human premixed Multi Analyte Kit (R&D Systems, Minneapolis, MN, USA). The urea, albumin and total protein levels were measured with the cobas c311 automated analyzer with corresponding test kits from Roche (Penzberg, Germany).

[3] = Removal of immunosuppressants by chronic dialysis (ex vivo, plasma); format: in vitro ADME, human
Description: as §1, §2, §3

[4] = Determination of protein binding by ultrafiltration; format: in vitro ADME; conditions: human plasma, ultrafiltration 30 kDa cutoff; read-out: Protein Binding in Plasma, Current Study (converted)
Description: To assess protein binding of the tested immunosuppressants, human plasma was spiked with the respective drugs and urea as a freely diffusible control. Samples were then subjected to ultrafiltration (30 kDa cutoff, 15,000× g, 20 min). The protein-bound fraction was calculated using the following formula:(1) protein binding %= 1−Cfiltrate/Cplasma where cplasma is the concentration of each compound in plasma and cfiltrate is its concentration in the ultrafiltrate.

[5] = literature; ref 21 (6-MP), 22 (CsA), 23 (MPR), 24 (MPA), 25 (TAC); cited from earlier work
human whole blood [6] = assay: Whole blood cell model: LPS stimulation, cytokine measurement; format: cell-based; conditions: + CytoSorb
Description: as §6

[7] = design: method as in earlier work; conditions: literature; ref 23 (methylprednisolone), 24 (mycophenolate), 41 (6-mercaptopurine); cited from earlier work
[8] = Whole blood cell model: immunosuppressant serum levels after CytoSorb treatment; format: in vitro ADME, human; conditions: overnight incubation, p < 0.05, n = 6
Description: To investigate whether the in vitro depletion of immunosuppressants by CytoSorb affects immunosuppression, a whole blood cell model was established. The experiment was conducted over two consecutive days. A graphical overview of the setup is provided in Supplementary Figure S1. On day one, freshly drawn human whole blood was incubated overnight at 37 °C with various immunosuppressants, either individually or in combination, to allow for sufficient drug exposure prior to CytoSorb treatment.
Subsequently, the blood was split into two experimental groups: one was treated with CytoSorb in a batch setup, and the other served as an untreated control, incubated under identical conditions at 37 °C on a roller mixer. Following treatment, all samples were allowed to rest for 4 h. After the resting period, blood samples were stimulated with either lipopolysaccharide (LPS) E. coli or with anti-CD3 antibodies. LPS primarily activates monocytes and neutrophils via the TLR4/CD14/MD2 complex, while anti-CD3 specifically stimulates T cells. The stimulation was carried out for 4 h at 37 °C on a roller mixer. Thereafter, the blood samples were centrifuged, and the plasma was collected and stored at −80 °C. Leukocyte activation was assessed by quantification of IL-1β, IL-6, IL-8, and TNF-α.
(§5) MPA was determined using a validated test for the Cobas c311 autoanalyzer from Roche (Basel, Switzerland). 6-MP was quantified by reversed-phase HPLC [17, 18]. After precipitation of the plasma sample with ice cold methanol in ratio 1:5, 30 µL of the supernatant was injected into a Nukleosil 100-5C18, 4.6 × 150 mm C18 column (Macherey-Nagel, Düren, Germany), combined with an Onyx Monolithic C18, 4.6 × 5 mm guard column (Phenomenex, Torrance, CA, USA). The mobile phase consisted of methanol and deionised water (50:50) which was continuously pumped with a flow rate of 0.8 mL/min for five minutes. 6-MP was quantified with a retention time of 2.3 min using an UV detector (325 nm). The quantification of cytokines was determined by Magnetic Luminex Assay with a human premixed Multi Analyte Kit (R&D Systems, Minneapolis, MN, USA). The urea, albumin and total protein levels were measured with the cobas c311 automated analyzer with corresponding test kits from Roche (Penzberg, Germany).

[9] = Static CytoSorb adsorption setup (spiked plasma with CytoSorb resin); format: in vitro ADME, human; conditions: plasma:resin 1:10 v/v, 60 min, 37 °C, n = 3
Description: as §4, §5

[10] = Dynamic CytoSorb adsorption setup (scaled-down circuit, whole blood); format: in vitro ADME, human
Description: To quantify the depletion of selected immunosuppressants during CytoSorb treatment under dynamic conditions, a scaled-down extracorporeal circulation system was established, consisting of a 30 mL CytoSorb adsorption cartridge and a pediatric tubing set filled with 400 mL of freshly drawn human whole blood (Figure 1b). To distinguish between drug removal by adsorption versus uptake by blood components, a control circuit with an identical setup but an empty cartridge was run in parallel for each experiment. Whole blood from two healthy donors of the same blood group was pooled, anticoagulated with citrate (final concentration: 7 mM), spiked with the immunosuppressants, and divided into two 400 mL blood bags.
Prior to circulation, the entire system was flushed with isotonic saline. Then, one of the prepared blood bags (Group 1 or Group 2) was connected to the circuit and circulated for 30 min at 37 °C without the adsorber cartridge to allow for equilibration. Following this equilibration, a baseline sample (0 min) was collected, and the adsorption column was introduced into the circuit. In the adsorption circuit, samples were collected at 15, 30, 60, 120, 180 and 240 min. In the control circuit, samples were taken at baseline and after 240 min. All blood samples were centrifuged (3500× g, 10 min) to separate plasma, which was stored at −80 °C until further analysis.
as §3, §5

removal by dialysis (in words) [1]: efficiently removed
clearance ([1]; after 8 h): below 10 mL/min
clearance ([1]; highest value reached): up to 30 mL/min
absorbed / reduced by blood cells (autologous blood cells): 36 ± 6%
removal by dialysis (in words) [3]: efficiently removed
clearance ([3]; initial values): ~ 190 mL/min
fraction unbound [4]: 0.662
reduction in serum level following CytoSorb treatment (in words) [8]: significant reduction
reduction of level in plasma by CytoSorb [9]: 33 ± 11%
mean clearance rate ([10]; CytoSorb treatment, at 15 min, Equation (2)): ~31 mL/min
adsorption (removal) by CytoSorb ([10]; dynamic ex vivo circuit, 400 mL human whole blood, 30 mL cartridge, 4 h): 47 ± 16%
Structure (SMILES): Sc1ncnc2nc[nH]c12 [6-MP, 6-mercaptopurine]
IL-1β serum level (human whole blood [2]; test 1): 0 pg/mL
IL-6 serum level (human whole blood [2]; test 1): 3 pg/mL
IL-8 serum level (human whole blood [2]; test 1): 205 pg/mL
TNF-α serum level (human whole blood [2]; test 1): 12 pg/mL
IL-1β serum level (human whole blood [2]; test 2): 75 pg/mL
IL-6 serum level (human whole blood [2]; test 2): 381 pg/mL
IL-8 serum level (human whole blood [2]; test 2): 4175 pg/mL
TNF-α serum level (human whole blood [2]; test 2): 46 pg/mL
IL-1β serum level (human whole blood [2]; test 3): 70 pg/mL
IL-6 serum level (human whole blood [2]; test 3): 30 pg/mL
IL-8 serum level (human whole blood [2]; test 3): 686 pg/mL
TNF-α serum level (human whole blood [2]; test 3): 41 pg/mL
Protein Binding in Plasma, Reference [5]: 39 [21] %
IL-1β serum level (human whole blood [6]; test 1): 354 pg/mL
IL-6 serum level (human whole blood [6]; test 1): 3786 pg/mL
IL-8 serum level (human whole blood [6]; test 1): 6337 pg/mL
TNF-α serum level (human whole blood [6]; test 1): 2920 pg/mL
IL-1β serum level (human whole blood [6]; test 2): 44 pg/mL
IL-6 serum level (human whole blood [6]; test 2): 730 pg/mL
IL-8 serum level (human whole blood [6]; test 2): 2253 pg/mL
TNF-α serum level (human whole blood [6]; test 2): 1762 pg/mL
IL-1β serum level (human whole blood [6]; test 3): 190 pg/mL
IL-6 serum level (human whole blood [6]; test 3): 3799 pg/mL
IL-8 serum level (human whole blood [6]; test 3): 7104 pg/mL
TNF-α serum level (human whole blood [6]; test 3): 1250 pg/mL
volume of distribution (Vd) [7]: ≈ 0.9 L/kg
